# From US9198420B2, “Rodenticidal norbormide analogues” (priority 2012, dated 2015)
# Where two headings read alike, the source gives them in different places. Marks after values point to notes of the source that are not given here.
# Legend:
# [1] = test system: rat caudal artery; test: Rat caudal artery ring contractile force (vasoconstrictory activity); parameters: species or system rat (male Wistar); conditions: for Emax: Table 1, read-out: Vasoconstriction: maximum contractile effect as a % of 90 mM KCl contraction
# Summary of the method: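 Endothelium-denuded caudal artery rings from male Wistar rats were held at 2 g resting tension in Tyrode solution (37° C, pH 7.35, 95% O2/CO2) and isometric force was recorded. Compounds were tested at 50 μM, with contraction expressed as percent of the 90 mM KCl response.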
# [2] = test system: Sprague Dawley rats; test: In vivo lethality, oral gavage; parameters: species or system rat (Sprague Dawley); conditions: rat; for Time to Death (min) / Onset of Symptoms: mean time; for Onset of Symptoms: visual signs of distress consistent with NRB-like symptoms; for In vivo lethality (oral): n = 2
# Summary of the method: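 Sprague Dawley rats (150-200 g) received compound dissolved in 0.2 M HCl (5% DMSO overall) at the desired dose, by oral gavage or tail-vein i.v. injection. Animals were watched for early toxicity signs every minute (i.v.) or every 15 min (oral).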
# [3] = test system: Sprague Dawley rats; test: Palatability (no-choice) trial, peanut butter bait; type: in vivo, rat (Sprague Dawley); conditions: 1% w/w toxicant in peanut butter bait; for mortality at 1 %: po
# Excerpt: In the palatability trials, Sprague Dawley rats (ca. 250 g) were presented with 1% w/w compound (n=6) or 0.5% w/w compound (n=5) in a peanut butter bait, following 3 days ‘pre-baiting’ with a peanut butter formulation free of toxicant.
# [4] = test system: Sprague Dawley rats; test: In vivo lethality, intravenous injection via the tail; parameters: species or system rat (Sprague Dawley); conditions: rat
# Description: Sprague Dawley rats (150-200 g) were used to appraise the rodenticidal activity of the compounds put forward for in vivo evaluation. Briefly, prior to administration the compounds were dissolved in 0.2 M hydrochloric acid (5% DMSO overall), to the desired dose, and without delay either injected intravenously, via the tail, or orally gavaged. All treated animals were housed in a quiet room and monitored every minute (i.v) or every 15 min (oral) to verify early signs of toxicity.
# [5] = test system: Sprague Dawley rats; test: Palatability (choice) trial, peanut butter bait; type: in vivo, rat (Sprague Dawley); conditions: 2 days
# [6] = Simulated gastric fluid (SGF) hydrolytic stability assay; type: physicochemical; conditions: simulated gastric fluid without pepsin, pH 1.2, 37° C., 1 h, n = 3
# Summary of the method: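 Compounds at 200 μM final (2.5% DMSO) were held 1 h at 37 °C in pepsin-free USP simulated gastric fluid (0.03 M NaCl, pH 1.2 with HCl), n=3. […] was quantified by RP-LCMS.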
# [7] = Rat serum assay (release of NRB or NRB analogue); type: in vitro ADME; conditions: 80% rat serum, 37° C., 3 h, n = 3
# Summary of the method: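 Compound (200 μM final) incubated in 80% rat serum diluted with 0.1 M phosphate pH 7.4, 2.5% DMSO, 37 °C for 3 h, n=3, then quenched in ice-cold acetonitrile. NRB or analogue release was quantified by RP-LCMS against external calibration curves, expressed as percent released.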
# [8] = Rat liver S9 fraction assay (release of NRB or NRB analogue); type: in vitro ADME, rat (male Sprague-Dawley); conditions: 1 mg/mL rat liver S9 fraction, 37° C., 6 h, n = 3
# Description: The hydrolytic stability of compounds of the invention was also evaluated in vitro using rat liver S9 fraction (20 mg/mL), pooled from male rat (Sprague-Dawley), obtained from Sigma-Aldrich, diluted to 1 mg/mL with phosphate buffer (0.1 M, pH 7.4) and stored at −78° C. Similar assay conditions to those reported by Li Di and co-workers (Int. J. Pharm. 2005, 297, 110-119) were followed [200 μL total volume, 1 mg/mL rat liver S9 fraction (diluting with phosphate buffer (0.1 M, pH 7.4)), at a final compound concentration of 200 μM, 2.5% DMSO overall, 37° C., 6 h, n=3]. The assay protocol followed is as that described above for the rat serum assay, with an adjusted end-point of 6 h.
# [9] = choice of EPA diet (20 g) and bait with 1% w/w toxicant (20 g), n = 12, Table 14
# [10] = choice of standard lab pellets (20 g) and bait with 1% w/w toxicant (20 g), n = 12, Table 13
# [11] = Table 5, compounds of formula (III)
# [12] = choice of EPA diet (20 g) and bait with 1% w/w toxicant (20 g), n = 2, Table 15
# [13] = n = 6, 3 male and 3 female rats, Table 11, read-out: No of deaths (converted)
SMILES,Emax [1] [%],"Vasoconstriction: maximum contractile effect as a % of 90 mM KCl contraction ([1]; Table 4, pre-cleavage, n = 3) [%]",Time to Death (min) ([2]; 20 mg/Kg),Onset of Symptoms ([2]; 20 mg/Kg) [min],In vivo lethality (oral) ([2]; 20 mg/Kg),In vivo lethality (oral) ([2]; 40 mg/Kg),"Vasoconstriction: maximum contractile effect as a % of 90 mM KCl contraction [1, 11] [%]","Vasoconstriction: maximum contractile effect as a % of 90 mM KCl contraction ([1]; n = 3, pre-cleavage, Table 6) [%]","% NRB released, Hydrolytic Stability [6] [%]","% NRB released, Rat Serum [7] [%]","% NRB released, Rat Liver S9 [8] [%]","No of deaths [5, 12]",also measured
"O=C(C=Cc1ccccc1)OCN1C(=O)C2C3C=C(C(O)(c4ccccc4)c4ccccn4)C(C3=C(c3ccccc3)c3ccccn3)C2C1=O (stereo not drawn) [Compound 19, N-Cinnamoyloxymethyl-5-(α-hydroxy-α-2-pyridylbenzyl)-7-(α-2-pyridylbenzylidene)-5-norbornene-2,3-dicarboximide]",0,0,90^d min,20,"yes^h,i","yes^h,i",,,,,,,"No of deaths ([3]; n = 6, male rats only, Table 10): 5/5^b; In vivo lethality (i.v.) ([4]; 20 mg/Kg, n = 2): yes^f; No of deaths [5, 9]: 1/12; No of deaths [5, 10]: 2/12"
"O=C(CCCCCCCCC(=O)OCN1C(=O)C2C3C=C(C(O)(c4ccccc4)c4ccccn4)C(C3=C(c3ccccc3)c3ccccn3)C2C1=O)OCN1C(=O)C2C3C=C(C(O)(c4ccccc4)c4ccccn4)C(C3=C(c3ccccc3)c3ccccn3)C2C1=O (stereo not drawn) [Compound 24, 5-(α-Hydroxy-α-2-pyridylbenzyl)-7-(α-2-pyridylbenzylidene)-N-sebacoyloxymethyl-5-norbornene-2,3-dicarboximide dimer]",,,,,,,0,0,0,8.6 ± 0.5,6.2 ± 0.2,,"In vivo lethality (i.v.) ([4]; 20 mg/Kg, n = 2, Table 6): no^e"
"CC(=Cc1ccccc1)C(=O)OCCN1C(=O)C2C3C=C(C(O)(c4ccccc4)c4ccccn4)C(C3=C(c3ccccc3)c3ccccn3)C2C1=O (stereo not drawn) [Compound 121, 5-(α-Hydroxy-α-2-pyridylbenzyl)-N-2′-α-methylcinnamoyloxyethyl-7-(α-2-pyridylbenzylidene)-5-norbornene-2,3-dicarboximide]",,0,not lethal,20,,,,,,19.1 ± 1.3,,3/12,"Vasoconstriction: maximum contractile effect as a % of 90 mM KCl contraction ([1]; Table 1, compound at 50 μM): 0%; % NRB released, Hydrolytic Stability (simulated gastric fluid) ([6]; footnote c: compounds not exhibiting vasoconstriction): 0^c %; No of deaths ([3]; n = 6, 3 male and 3 female rats, Table 11): 6/6"
"COc1ccc(C=CC(=O)OCCN2C(=O)C3C4C=C(C(O)(c5ccccc5)c5ccccn5)C(C4=C(c4ccccc4)c4ccccn4)C3C2=O)cc1 (stereo not drawn) [Compound 126, 5-(α-Hydroxy-α-2-pyridylbenzyl)-N-[2′-(4″-methoxycinnamoyloxy)ethyl]-7-(α-2-pyridylbenzylidene)-5-norbornene-2,3-dicarboximide]",0,0,50^d min,25,"yes^h,i","yes^h,i",,,,,,,"mortality at 1 % ([3]; n = 6, male rats only, Table 10, read-out: No of deaths (converted)): 83.3%; In vivo lethality (i.v.) ([4]; 20 mg/Kg, n = 2): yes^f; No of deaths [5, 9]: 8/11^b; No of deaths [5, 10]: 10/12"
"O=C(CCCCCCCCC(=O)OCCN1C(=O)C2C3C=C(C(O)(c4ccccc4)c4ccccn4)C(C3=C(c3ccccc3)c3ccccn3)C2C1=O)OCCN1C(=O)C2C3C=C(C(O)(c4ccccc4)c4ccccn4)C(C3=C(c3ccccc3)c3ccccn3)C2C1=O (stereo not drawn) [Compound 141, 5-(α-Hydroxy-α-2-pyridylbenzyl)-7-(α-2-pyridylbenzylidene)-N-2′-sebacoyloxyethyl-5-norbornene-2,3-dicarboximide dimer]",,,,,,,0,0,0,<5,<5,,"In vivo lethality (i.v.) ([4]; 10 mg/Kg, n = 2, Table 6): no^f"
"O=C(CCC(=O)OCCN1C(=O)C2C3C=C(C(O)(c4ccccc4)c4ccccn4)C(C3=C(c3ccccc3)c3ccccn3)C2C1=O)OCCOC(=O)CCC(=O)OCCN1C(=O)C2C3C=C(C(O)(c4ccccc4)c4ccccn4)C(C3=C(c3ccccc3)c3ccccn3)C2C1=O (stereo not drawn) [Compound 144, N-[2′-Ethylenebis(hydrogensuccinoyloxy)ethyl]-5-(α-hydroxy-α-2-pyridylbenzyl)-7-(α-2-pyridylbenzylidene)-5-norbornene-2,3-dicarboximide dimer]",,,,,,,0,0,0,14.5 ± 0.8,<5,,"In vivo lethality (i.v.) ([4]; 10 mg/Kg, n = 2, Table 6): no^f"
"Cc1ccc(CC(=O)OCN2C(=O)C3C4C=C(C(O)(c5ccccc5)c5ccccn5)C(C4=C(c4ccccc4)c4ccccn4)C3C2=O)cc1 (stereo not drawn) [Compound 324, 5-(α-Hydroxy-α-2-pyridylbenzyl)-N-4-methylphenylacetoyloxymethyl-7-(α-2-pyridylbenzylidene)-5-norbornene-2,3-dicarboximide]",17,17,60^d min,15,"yes^h,i","yes^h,i",,,,,,5/12,"mortality at 1 % [3, 13]: 100%"
"CCc1ccc(C=CC(=O)OCCN2C(=O)C3C4C=C(C(O)(c5ccccc5)c5ccccn5)C(C4=C(c4ccccc4)c4ccccn4)C3C2=O)cc1 (stereo not drawn) [Compound 335, N-[2′-(4″-Ethylcinnamoyloxy)ethyl]-5-(α-hydroxy-α-2-pyridylbenzyl)-7-(α-2-pyridylbenzylidene)-5-norbornene-2,3-dicarboximide]",19,19,90^e min,15,,yes^h,,,,,,7/12,"mortality at 1 % [3, 13]: 100%"
